This is an account of results in patent US20220347190A1, “TREATMENT COMPRISING FXR AGONISTS” (Novartis AG, priority 2019, published 2022).

Data set [1] concerns C57BL/6J mice on HF/NASH diet. Description: Drug treatment study in mice on HF/NASH diet (Example 1). The data set is classed as in vivo. The procedure: Studies were performed in compliance with Swiss guidelines for animal experimentation. Adult male C57BLJ6J mice were housed with ad libitum access to water and food. Mice were fed a HF/NASH diet (40 kcal % fat, 2% cholesterol, 40 kcal % carbohydrate, Research Diets, D09100301 or SSniff Special Diets, supplemented with a fructose-sucrose solution (42 g/L, 55% fructose and 45% sucrose by weight) in drinking water).
Total body fat and lean mass were analyzed by a nuclear magnetic resonance (NMR) and liver fat was measured by magnetic resonance imaging (MRI). […] Dietary intervention studies: mice fed a HF/NASH diet for 8 weeks were switched to normal diet (ND and water) for 12 weeks.
Drug treatment studies: mice exposed to HF/NASH diet for 20 weeks were treatment with LJP305 (1 mg/kg), GS-0976 (10 mg/kg) or vehicle (0.5% methylcellulose, 0.5% Tween 80 in water) p.o. once daily for 12 weeks while remaining on HF/NASH diet. At the end of the studies, blood and tissue samples were collected for analyses.
Liver samples were analyzed for collagen (Quickzyme), lipids and triglycerides (Cayman). Relative gene expression was calculated by normalizing Ct values of genes of interest against 18s (liver) or Idh3b (fat, ileum). Serum TIMP-1 (R&D Systems Inc.), PIII-NP (N-terminal procollagen III propeptide) (Cusabio Biotech Co.), α-fetoprotein (R&D Systems Inc.), leptin, and adiponectin (Meso Scale Discovery) were measured.
Paraffin-embedded tissue was stained with hematoxylin/eosin (H&E) and picrosirius red. IBA1 (ionized calcium-binding adapter molecule 1)-positive crown-like structures (Abcam, ab178846), Ly6b (BioRad, MCA771), UCP-1 (Abcam, ab109839) or ZO-1 (Invitrogen, 14-9776-80) were stained (Ventana Discovery XT) followed by digital (Aperio ScanScope XT, Leica Biosystems) and automated image analysis (HALO, Indica Labs).

In data set [2] the test system is NASH patients. To be noted: cited from earlier work.
The test system of data set [3] is healthy volunteers. To be noted: cited from earlier work.
In data set [4] the test system is patients with biopsy-proven NASH and fibrosis stages 2-3. The text has this:
Prespecified endpoints assessed at week 12 included overall safety and changes in alanine aminotransferase (ALT), hepatic fat fraction (HFF), gamma glutamyl transferase (GGT), and body weight.

Data set [5] deals with NASH patients.
For data set [6], the system named is NASH patients. To be noted: cited from earlier work. This is another data set of the same source.
Where [7] appears, read: GS-0976 10 mg/kg p.o. once daily for 12 weeks, HF/NASH diet.

“Also recorded” adds a separate entry of the source. Where two headings read alike, the source gives them in different places.

With `COc1ccccc1[C@H](Cn1c(=O)n(C(C)(C)C(=O)O)c(=O)c2c(C)c(-c3ncco3)sc21)OC1CCOCC1` [GS-0976, 2-[1-{(2R)-2-(2-methoxyphenyl)-2-[(oxan-4-yl)oxy]ethyl}-5-methyl-6-(1,3-oxazol-2-yl)-2,4-dioxo-1,4-dihydrothieno[2,3-d]pyrimidin-3(2H)-yl]-2-methylpropanoic acid], in data set [1] (setting [7]), the “elevation of circulating leptin levels vs vehicle” value worked out at 2 fold; the “increase in total fat mass vs vehicle” value turned out to be 27%; the “increase in visceral and subcutaneous fat vs vehicle” value was determined as 30%. Moreover, the “mean body weight above vehicle-treated mice” value in data set [1] (GS-0976 10 mg/kg p.o. once daily, end of 12-week treatment, HF/NASH diet) was 7%. In addition, in data set [1] (GS-0976 10 mg/kg, liver transcriptome), the “liver gene expression (lipid metabolism genes)” value was “induced multiple genes known to play roles in lipid metabolism”. Further, in data set [1] (NASH mice, 12-week treatment), the “effect on blood triglycerides and peripheral obesity” value was “elevated blood triglycerides and peripheral obesity”. In addition, in data set [1] (chronic treatment, HF/NASH diet, vs vehicle), the “body weight effect (in words)” value is “significant increase in body weight”. Also, the “effect of therapeutic treatment on established NASH with fibrosis” value in data set [1] (p.o. once daily for 12 weeks after 20 weeks of HF/NASH diet) is reported as “resolved established NASH with fibrosis”. Further, in data set [2] (NASH patients), the “plasma triglycerides (TG)” value is recorded as “Hypertriglyceridemia; also recorded: elevated plasma triglycerides”. Also, in data set [2] (NASH subjects), the “steatosis and MRI-PDFF in NASH subjects” value was “improve steatosis and improvements in MRI-PDFF”. The “liver fat, serum TIMP-1 and liver injury” value in data set [2] (clinical phase 2 NASH studies, 12 weeks) was “reductions in liver fat, serum TIMP-1, and liver injury”.
In the case of `COc1cc(C(=O)N2CCC3(CC2)CC(=O)c2cc(-c4cncc(C(=O)O)c4)ccc2O3)cc2c1c(C)cn2C1CC1` [MK-4704], the plasma triglycerides result in data set [3] is on record as “Hypertriglyceridemia”.
For the compound `O=C(O)c1cc(F)c2nc(N3C4CCC3CC(OCc3c(-c5ccccc5OC(F)(F)F)noc3C3CC3)C4)sc2c1` [Tropifexor, 2-[(1R,3r,5S)-3-({5-cyclopropyl-3-[2-(trifluoromethoxy)phenyl]-1,2-oxazol-4-yl}methoxy)-8-azabicyclo[3.2.1]octan-8-yl]-4-fluoro-1,3-benzothiazole-6-carboxylic acid], in data set [4] (140 μg and 200 μg vs placebo), the “frequency of serious adverse events” value is “low and comparable across groups”. The “low density lipoprotein-cholesterol (LDL-C)” value in data set [4] (140 μg and 200 μg, 12 weeks) is “dose-related increase”. In addition, in data set [4] (Tropifexor 140 μg), the “treatment discontinuation rate due to pruritus” value was 2%. Also, in data set [4] (Tropifexor 140 μg once daily), the “ALT, LS mean absolute change (SE) from baseline to Week 12” value was −20.1 (4.57) U/L; the “Body weight, LS mean absolute change (SE) from baseline to Week 12” value was −2.46 (0.38) kg; the “GGT, LS mean absolute change (SE) from baseline to Week 12” value was −39.2 (3.70) U/L. Besides, in data set [4] (Tropifexor 200 μg), the “pre-specified endpoints at week 12” value is recorded as “Pre-specified endpoints were met” and the “treatment discontinuation rate due to pruritus” value was 6%. For the same compound, in data set [4] (Tropifexor 200 μg once daily), the “ALT, LS mean absolute change (SE) from baseline to Week 12” value was −23.6 (4.48) U/L; the “Body weight, LS mean absolute change (SE) from baseline to Week 12” value is listed as −3.20 (0.37) kg; the “GGT, LS mean absolute change (SE) from baseline to Week 12” value was −40.9 (3.62) U/L. The “share of patients with pruritus whose events were of mild (Grade 1) severity” value in data set [4] (both Tropifexor groups (140 μg and 200 μg)) is recorded as over 60%. In data set [4] (higher doses (140 μg and 200 μg)), the “ALT, HFF and body weight after 12 weeks (in words)” value is “robust and dose-dependent decreases”. Moreover, the “efficacy based on biomarkers at Week 12” value in data set [5] (60 and 90 μg) is “anti-inflammatory and anti-steatotic efficacy”. For the same compound, the tolerability entry in data set [5] (up to 90 μg daily) is on record as “generally well tolerated up to 90 μg daily without safety signals”.
For the compound `CC[C@H]1[C@@H](O)[C@@H]2[C@H](CC[C@]3(C)[C@@H]([C@H](C)CCC(=O)O)CC[C@@H]23)[C@@]2(C)CC[C@@H](O)C[C@@H]12` [obeticholic acid, 6α-ethyl-chenodeoxycholic acid], the “adverse effects of long term administration” value in data set [6] was “associated with pruritus and lipid abnormalities”.
